tested on: HL-60; experiment: cell viability (% survival relative to DMSO control, bortezomib = 0%); higher = less cytotoxic; settings: 10000 nM; 72 h
Outline: (§1)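 Fifteen myeloid leukaemia cell lines were exposed to compounds at 1, 10, 100, 1000 or 10000 nM in 384-well plates for 72 h at 37 °C and 5% CO2. Viability was read by CellTiter-Glo luminescence and normalised, with vehicle as 100% and a 10 µM positive control as 0%. Values are percent survival averaged over duplicates.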

SMILES | cell viability [%]
O=c1cc(N2CCOCC2)oc2c(-c3ccccc3)cccc12 | 0.404
O=C1C(SCCO)=C(SCCO)C(=O)c2ccccc21 | -0.447
Cc1nc(-c2ccccc2)sc1C(=O)Nc1ccc(S(N)(=O)=O)cc1 | 97.2
Cn1cc(-c2ccncc2)c(-c2ccc(OCc3ccc4ccccc4n3)cc2)n1 | 64.2
O=C(O)CC[N+](=O)[O-] [3-nitropropionic acid] | 14.7
C=CC(=O)c1ccc(O)cc1 [4-Acryloylphenol] | 94.6
Cc1[nH]nc(C(F)(F)F)c1Cc1sc2c(c1C(=O)N1C[C@](C)(O)CO1)c(=O)n(C)c(=O)n2C(C)C [AZD3965] | 115
O=c1cc(-c2ccccc2)oc2c1ccc1ccccc12 [Alpha-Naphtoflavone] | 103

tested on: K-562; experiment: as above; settings: 1 nM; 72 h
Outline: as §1

SMILES | cell viability [%]
CN(CCCOc1ccc(Cc2ccccc2)cc1)CCC(=O)O | 103
Cc1c2c(=O)n(-c3ccccc3Cl)[nH]c2cc(=O)n1Cc1ccccn1 | 109
COc1ccc2c(NC(=O)Nc3cccc(C(F)(F)F)n3)ccnc2c1 | 104
O=c1cc(N2CCOCC2)oc2c(-c3ccccc3)cccc12 | 135
O=C1C(SCCO)=C(SCCO)C(=O)c2ccccc21 | 98.9
Cc1nc(-c2ccccc2)sc1C(=O)Nc1ccc(S(N)(=O)=O)cc1 | 103
Cn1cc(-c2ccncc2)c(-c2ccc(OCc3ccc4ccccc4n3)cc2)n1 | 99.5
O=C(O)CC[N+](=O)[O-] [3-nitropropionic acid] | 112
C=CC(=O)c1ccc(O)cc1 [4-Acryloylphenol] | 86.2
Cc1[nH]nc(C(F)(F)F)c1Cc1sc2c(c1C(=O)N1C[C@](C)(O)CO1)c(=O)n(C)c(=O)n2C(C)C [AZD3965] | 101
O=c1cc(-c2ccccc2)oc2c1ccc1ccccc12 [Alpha-Naphtoflavone] | 95.8

same assay, conditions: 10 nM; 72 h

SMILES | cell viability [%]
CN(CCCOc1ccc(Cc2ccccc2)cc1)CCC(=O)O | 107
Cc1c2c(=O)n(-c3ccccc3Cl)[nH]c2cc(=O)n1Cc1ccccn1 | 92.5
COc1ccc2c(NC(=O)Nc3cccc(C(F)(F)F)n3)ccnc2c1 | 100
O=c1cc(N2CCOCC2)oc2c(-c3ccccc3)cccc12 | 104
O=C1C(SCCO)=C(SCCO)C(=O)c2ccccc21 | 98.8
Cc1nc(-c2ccccc2)sc1C(=O)Nc1ccc(S(N)(=O)=O)cc1 | 109
Cn1cc(-c2ccncc2)c(-c2ccc(OCc3ccc4ccccc4n3)cc2)n1 | 109
O=C(O)CC[N+](=O)[O-] [3-nitropropionic acid] | 120
C=CC(=O)c1ccc(O)cc1 [4-Acryloylphenol] | 85.5
Cc1[nH]nc(C(F)(F)F)c1Cc1sc2c(c1C(=O)N1C[C@](C)(O)CO1)c(=O)n(C)c(=O)n2C(C)C [AZD3965] | 42
O=c1cc(-c2ccccc2)oc2c1ccc1ccccc12 [Alpha-Naphtoflavone] | 101

same assay, conditions: 100 nM; 72 h

SMILES | cell viability [%]
CN(CCCOc1ccc(Cc2ccccc2)cc1)CCC(=O)O | 98.1
Cc1c2c(=O)n(-c3ccccc3Cl)[nH]c2cc(=O)n1Cc1ccccn1 | 89.3
COc1ccc2c(NC(=O)Nc3cccc(C(F)(F)F)n3)ccnc2c1 | 95.3
O=c1cc(N2CCOCC2)oc2c(-c3ccccc3)cccc12 | 90.3
O=C1C(SCCO)=C(SCCO)C(=O)c2ccccc21 | 112
Cc1nc(-c2ccccc2)sc1C(=O)Nc1ccc(S(N)(=O)=O)cc1 | 105
Cn1cc(-c2ccncc2)c(-c2ccc(OCc3ccc4ccccc4n3)cc2)n1 | 106
O=C(O)CC[N+](=O)[O-] [3-nitropropionic acid] | 89.7
C=CC(=O)c1ccc(O)cc1 [4-Acryloylphenol] | 101
Cc1[nH]nc(C(F)(F)F)c1Cc1sc2c(c1C(=O)N1C[C@](C)(O)CO1)c(=O)n(C)c(=O)n2C(C)C [AZD3965] | 33.8
O=c1cc(-c2ccccc2)oc2c1ccc1ccccc12 [Alpha-Naphtoflavone] | 109

same assay, conditions: 1000 nM; 72 h

SMILES | cell viability [%]
CN(CCCOc1ccc(Cc2ccccc2)cc1)CCC(=O)O | 112
Cc1c2c(=O)n(-c3ccccc3Cl)[nH]c2cc(=O)n1Cc1ccccn1 | 77.7
COc1ccc2c(NC(=O)Nc3cccc(C(F)(F)F)n3)ccnc2c1 | 93.7
O=c1cc(N2CCOCC2)oc2c(-c3ccccc3)cccc12 | 6.74
O=C1C(SCCO)=C(SCCO)C(=O)c2ccccc21 | 20.6
Cc1nc(-c2ccccc2)sc1C(=O)Nc1ccc(S(N)(=O)=O)cc1 | 114
Cn1cc(-c2ccncc2)c(-c2ccc(OCc3ccc4ccccc4n3)cc2)n1 | 98.5
O=C(O)CC[N+](=O)[O-] [3-nitropropionic acid] | 95
C=CC(=O)c1ccc(O)cc1 [4-Acryloylphenol] | 114
Cc1[nH]nc(C(F)(F)F)c1Cc1sc2c(c1C(=O)N1C[C@](C)(O)CO1)c(=O)n(C)c(=O)n2C(C)C [AZD3965] | 20
O=c1cc(-c2ccccc2)oc2c1ccc1ccccc12 [Alpha-Naphtoflavone] | 90.2

same assay, conditions: 10000 nM; 72 h

SMILES | cell viability [%]
CN(CCCOc1ccc(Cc2ccccc2)cc1)CCC(=O)O | 104
Cc1c2c(=O)n(-c3ccccc3Cl)[nH]c2cc(=O)n1Cc1ccccn1 | 54
COc1ccc2c(NC(=O)Nc3cccc(C(F)(F)F)n3)ccnc2c1 | 103
O=c1cc(N2CCOCC2)oc2c(-c3ccccc3)cccc12 | 0.516
O=C1C(SCCO)=C(SCCO)C(=O)c2ccccc21 | 0.0893
Cc1nc(-c2ccccc2)sc1C(=O)Nc1ccc(S(N)(=O)=O)cc1 | 109
Cn1cc(-c2ccncc2)c(-c2ccc(OCc3ccc4ccccc4n3)cc2)n1 | 57.9
O=C(O)CC[N+](=O)[O-] [3-nitropropionic acid] | 10.5
C=CC(=O)c1ccc(O)cc1 [4-Acryloylphenol] | 66.7
Cc1[nH]nc(C(F)(F)F)c1Cc1sc2c(c1C(=O)N1C[C@](C)(O)CO1)c(=O)n(C)c(=O)n2C(C)C [AZD3965] | 21.9
O=c1cc(-c2ccccc2)oc2c1ccc1ccccc12 [Alpha-Naphtoflavone] | 108

tested on: KCL-22; experiment: as above; settings: 1 nM; 72 h
Outline: as §1

SMILES | cell viability [%]
CN(CCCOc1ccc(Cc2ccccc2)cc1)CCC(=O)O | 106
Cc1c2c(=O)n(-c3ccccc3Cl)[nH]c2cc(=O)n1Cc1ccccn1 | 60.5
COc1ccc2c(NC(=O)Nc3cccc(C(F)(F)F)n3)ccnc2c1 | 101
O=c1cc(N2CCOCC2)oc2c(-c3ccccc3)cccc12 | 123
O=C1C(SCCO)=C(SCCO)C(=O)c2ccccc21 | 112
Cc1nc(-c2ccccc2)sc1C(=O)Nc1ccc(S(N)(=O)=O)cc1 | 98.7
Cn1cc(-c2ccncc2)c(-c2ccc(OCc3ccc4ccccc4n3)cc2)n1 | 116
O=C(O)CC[N+](=O)[O-] [3-nitropropionic acid] | 73.9
C=CC(=O)c1ccc(O)cc1 [4-Acryloylphenol] | 86.1
Cc1[nH]nc(C(F)(F)F)c1Cc1sc2c(c1C(=O)N1C[C@](C)(O)CO1)c(=O)n(C)c(=O)n2C(C)C [AZD3965] | 89.7
O=c1cc(-c2ccccc2)oc2c1ccc1ccccc12 [Alpha-Naphtoflavone] | 107

same assay, conditions: 10 nM; 72 h

SMILES | cell viability [%]
CN(CCCOc1ccc(Cc2ccccc2)cc1)CCC(=O)O | 103
Cc1c2c(=O)n(-c3ccccc3Cl)[nH]c2cc(=O)n1Cc1ccccn1 | 119
COc1ccc2c(NC(=O)Nc3cccc(C(F)(F)F)n3)ccnc2c1 | 102
O=c1cc(N2CCOCC2)oc2c(-c3ccccc3)cccc12 | 104
O=C1C(SCCO)=C(SCCO)C(=O)c2ccccc21 | 101
Cc1nc(-c2ccccc2)sc1C(=O)Nc1ccc(S(N)(=O)=O)cc1 | 99.1
Cn1cc(-c2ccncc2)c(-c2ccc(OCc3ccc4ccccc4n3)cc2)n1 | 96
O=C(O)CC[N+](=O)[O-] [3-nitropropionic acid] | 101
C=CC(=O)c1ccc(O)cc1 [4-Acryloylphenol] | 89.5
Cc1[nH]nc(C(F)(F)F)c1Cc1sc2c(c1C(=O)N1C[C@](C)(O)CO1)c(=O)n(C)c(=O)n2C(C)C [AZD3965] | 112
O=c1cc(-c2ccccc2)oc2c1ccc1ccccc12 [Alpha-Naphtoflavone] | 98.1

same assay, conditions: 100 nM; 72 h

SMILES | cell viability [%]
CN(CCCOc1ccc(Cc2ccccc2)cc1)CCC(=O)O | 94.8
Cc1c2c(=O)n(-c3ccccc3Cl)[nH]c2cc(=O)n1Cc1ccccn1 | 84.4
COc1ccc2c(NC(=O)Nc3cccc(C(F)(F)F)n3)ccnc2c1 | 110
O=c1cc(N2CCOCC2)oc2c(-c3ccccc3)cccc12 | 90.5
O=C1C(SCCO)=C(SCCO)C(=O)c2ccccc21 | 89.9
Cc1nc(-c2ccccc2)sc1C(=O)Nc1ccc(S(N)(=O)=O)cc1 | 105
Cn1cc(-c2ccncc2)c(-c2ccc(OCc3ccc4ccccc4n3)cc2)n1 | 96.4
O=C(O)CC[N+](=O)[O-] [3-nitropropionic acid] | 98.3
C=CC(=O)c1ccc(O)cc1 [4-Acryloylphenol] | 102
Cc1[nH]nc(C(F)(F)F)c1Cc1sc2c(c1C(=O)N1C[C@](C)(O)CO1)c(=O)n(C)c(=O)n2C(C)C [AZD3965] | 125
O=c1cc(-c2ccccc2)oc2c1ccc1ccccc12 [Alpha-Naphtoflavone] | 97.7

same assay, conditions: 1000 nM; 72 h

SMILES | cell viability [%]
CN(CCCOc1ccc(Cc2ccccc2)cc1)CCC(=O)O | 116
Cc1c2c(=O)n(-c3ccccc3Cl)[nH]c2cc(=O)n1Cc1ccccn1 | 94.6
COc1ccc2c(NC(=O)Nc3cccc(C(F)(F)F)n3)ccnc2c1 | 94.9
O=c1cc(N2CCOCC2)oc2c(-c3ccccc3)cccc12 | 98.9
O=C1C(SCCO)=C(SCCO)C(=O)c2ccccc21 | 38.3
Cc1nc(-c2ccccc2)sc1C(=O)Nc1ccc(S(N)(=O)=O)cc1 | 79.8
Cn1cc(-c2ccncc2)c(-c2ccc(OCc3ccc4ccccc4n3)cc2)n1 | 102
O=C(O)CC[N+](=O)[O-] [3-nitropropionic acid] | 123
C=CC(=O)c1ccc(O)cc1 [4-Acryloylphenol] | 124
Cc1[nH]nc(C(F)(F)F)c1Cc1sc2c(c1C(=O)N1C[C@](C)(O)CO1)c(=O)n(C)c(=O)n2C(C)C [AZD3965] | 102
O=c1cc(-c2ccccc2)oc2c1ccc1ccccc12 [Alpha-Naphtoflavone] | 85.8

same assay, conditions: 10000 nM; 72 h

SMILES | cell viability [%]
CN(CCCOc1ccc(Cc2ccccc2)cc1)CCC(=O)O | 110
Cc1c2c(=O)n(-c3ccccc3Cl)[nH]c2cc(=O)n1Cc1ccccn1 | 106
COc1ccc2c(NC(=O)Nc3cccc(C(F)(F)F)n3)ccnc2c1 | 114
O=c1cc(N2CCOCC2)oc2c(-c3ccccc3)cccc12 | 45.1
O=C1C(SCCO)=C(SCCO)C(=O)c2ccccc21 | -0.332
Cc1nc(-c2ccccc2)sc1C(=O)Nc1ccc(S(N)(=O)=O)cc1 | 102
Cn1cc(-c2ccncc2)c(-c2ccc(OCc3ccc4ccccc4n3)cc2)n1 | 73.7
O=C(O)CC[N+](=O)[O-] [3-nitropropionic acid] | 81
C=CC(=O)c1ccc(O)cc1 [4-Acryloylphenol] | 28.2
Cc1[nH]nc(C(F)(F)F)c1Cc1sc2c(c1C(=O)N1C[C@](C)(O)CO1)c(=O)n(C)c(=O)n2C(C)C [AZD3965] | 108
O=c1cc(-c2ccccc2)oc2c1ccc1ccccc12 [Alpha-Naphtoflavone] | 84.8

tested on: KG-1; experiment: as above; settings: 1 nM; 72 h
Outline: as §1

SMILES | cell viability [%]
CN(CCCOc1ccc(Cc2ccccc2)cc1)CCC(=O)O | 94.1
Cc1c2c(=O)n(-c3ccccc3Cl)[nH]c2cc(=O)n1Cc1ccccn1 | 92.4
COc1ccc2c(NC(=O)Nc3cccc(C(F)(F)F)n3)ccnc2c1 | 90.7
O=c1cc(N2CCOCC2)oc2c(-c3ccccc3)cccc12 | 114
O=C1C(SCCO)=C(SCCO)C(=O)c2ccccc21 | 107
Cc1nc(-c2ccccc2)sc1C(=O)Nc1ccc(S(N)(=O)=O)cc1 | 118
Cn1cc(-c2ccncc2)c(-c2ccc(OCc3ccc4ccccc4n3)cc2)n1 | 97.7

Source: the supplement of paper PMC8671470
